Data reported in patent publication US20260094676A1, “METHOD AND APPARATUS FOR PREDICTING DRUG BIOAVAILABILITY” (LIVERPOOL JOHN MOORES UNIVERSITY, priority 2022, published 2026).
Structures can show the parent of a compound that is named as a salt. Where two headings read alike, the source gives them in different places.

Columns and labels:
[1] = 48 h
[2] = Reversed phase TLC lipophilicity measurement on Leucaena oil device (LOD); conditions: for ICHI (isocratic chromatographic hydrophobicity index): LOD R1 to R10, methanol in water mobile phase
Experimental: Silica gel GF254 plates (5×10 cm) are successively developed by ascending development in the oil solution. Ten consecutive runs were carried out in each of the six tanks set up to prepare the Leucaena oil device (LOD).
The plates were air-dried at room temperature and the plates were developed in saturated development tanks containing 10 mL of the mobile phase. The plates were developed over a path of 7 cm and allowed to air-dry before visualization under UV light at 254 nm. The retardation factor (Rf) was then measured. The development was performed in duplicate.
Rm was computed by the equation: […]
The linear regression of Rm versus organic modifier fraction is governed by the Soczewinski Wachmeister equation: […]
The mobile phase used consisted of various concentrations of methanol in 0.1N HCl and Phosphate buffer pH 6.8.
(§1) Data analysis was done as previously described, Rf was transformed to Rm and linear regression analysis implemented to determine the lipophilicity parameter, ICHI.
(§2) Data analysis was performed as described earlier under data analysis in previous sections. Rf is transformed to Rm and linear regression of Rm versus methanol fraction produces linear regression parameters that provide the lipophilicity metric.

[3] = Experimental: The mobile phase used consisted of various concentrations of methanol in 0.1N HCl and phosphate buffer pH 6.8.
as §1, §2

[4] = humans, cited from earlier work
[5] = dogs, cited from earlier work
[6] = concomitant intake of kolanut with halofantrine; cited from earlier work
[7] = cited from earlier work
[8] = halofantrine administered postprandially

## CC(=O)N1CCN(c2ccc(OCC3COC(Cn4ccnc4)(c4ccc(Cl)cc4Cl)O3)cc2)CC1 (stereo not drawn) [ketoconazole]
[1]
  critical point ('critical micellar concentration') of ketoconazole for halofantrine solubility: 0.015%
[2]
  Lipophilicity classification based on ICHI: amphiphilic
[2]; LOD, mean over 0.1N HCl and phosphate buffer pH 6.8 mobile phases
  ICHI, mean value: 0.70
[3]
  Lipophilicity classification based on ICHI: lipophilic
[3]; ODS, mean over 0.1N HCl and phosphate buffer pH 6.8 mobile phases
  ICHI, mean value: 0.86

## CCCCNCCC(O)c1cc2c(Cl)cc(Cl)cc2c2cc(C(F)(F)F)ccc12 (stereo not drawn) [desbutylhalofantrine]
[4]; [8]
  decrease of proportional formation of desbutyl metabolite: 2.4 fold
[5]; [8]
  decrease of proportional formation of desbutyl metabolite: 6.8 fold
[6]
  Cmax, effect of concomitant kolanut: significantly decreased
  t1/2, effect of concomitant kolanut: no significant effect
  tmax, effect of concomitant kolanut: no significant effect

## Oc1ccc2ccccc2c1 [β-naphthol]
[2]
  ICHI (isocratic chromatographic hydrophobicity index): 0.46-0.48

## O=C(O)c1cn(C2CC2)c2cc(N3CCNCC3)c(F)cc2c1=O [ciprofloxacin hydrochloride]
[2]; LOD, combination with model Garcinia bioflavonoid
  Qsi: about 10

## COc1ccc2cc(CCC(C)=O)ccc2c1 [nabumetone]
[2]
  ICHI (isocratic chromatographic hydrophobicity index): 0.61-0.63

## Oc1cccc2ccccc12 [α-naphthol]
[2]
  ICHI (isocratic chromatographic hydrophobicity index): 0.52-0.54

## CCCCN(CCCC)CCC(O)c1cc2c(Cl)cc(Cl)cc2c2cc(C(F)(F)F)ccc12 (stereo not drawn) [halofantrine]
[4]; administered postprandially
  increase of oral bioavailability: 3 fold
[5]; administered postprandially
  increase of oral bioavailability: 12 fold
[2]; LOD, halofantrine versus caffeine
  Solubility interaction quotient (Qsi), fold more lipophilic than caffeine: 24 fold
[2]; LOD, ketoconazole and halofantrine
  Qsi: 1.42
[7]; fasted oral administration of Hf with ketoconazole
  plasma Hfm/Hf AUC (0-72 h) ratio: less than 0.05
[7]; fasted oral administration of Hf without ketoconazole
  plasma Hfm/Hf AUC (0-72 h) ratio: 0.56
[6]
  Cmax, effect of concomitant kolanut: significantly decreased
  t1/2, effect of concomitant kolanut: no significant effect
  tmax, effect of concomitant kolanut: no significant effect
[3]; ODS, halofantrine versus caffeine
  Solubility interaction quotient (Qsi), fold more lipophilic than caffeine: 2 fold
